From patent US20200261418A1, “HDAC INHIBITOR IN COMBINATION WITH IMMUNE CHECKPOINT MODULATOR FOR CANCER THERAPY” (4SC AG, priority 2017, published 2020)
Where two headings read alike, the source gives them in different places.

What was measured:
[1] = Handling of 4SC-202 tosylate calibration solutions (light stability); assay type: physicochemical; conditions: solutions in dimethylsulfoxide and dimethylsulfoxide/acetonitrile
Method: For the preparation of calibration samples, 4SC-202 tosylate salt was dissolved in dimethylsulfoxide to a concentration of 1.00 mg/mL free base. For the preparation of QC samples, a second solution with a concentration of 1.00 mg/mL free base was used. Working solutions were prepared by serial dilutions in a mixture of dimethylsulfoxide/acetonitrile (50/50, v/v) to concentrations 50 times higher than the corresponding concentrations in matrix. The concentrations were calculated under consideration of purity and salt factor where applicable. All concentrations are expressed as those of the free base. […] The concentrations of the calibration are (ng/mL): 1.00, 2.00, 5.00, 20.00, 100, 500, 750, 1000. The concentrations of the QC are (ng/mL): 13.00, 20.00, 750 For preparation of the CAL and QC, the matrix was fortified with the working solutions using a ratio of 98/2 (v/v). For the preparation of the internal standard solution, 4SC-201-d6 mesylate salt was dissolved in dimethylsulfoxide to a concentration of 1.00 mg/mL of the free base. Further dilutions to a final concentration of 100 ng/mL were done in acetonitrile. The concentration was calculated under consideration of purity and salt factor.

C38 tumor fragments = assay: Preclinical murine in vivo tumor model, C38; set-up: species or system female C57Bl/6 mice; conditions: C38 model (FIG. 1); anti-PD1 10 mg/kg IP; 4SC-202 at 20 mg/kg PO alone or combined
Method: (§1) In vivo murine tumor models were conducted with a combination of 4SC-202 and murine anti-PD-1 and anti-PD-L1 antibodies, respectively. 1×10^6 CT26 cells or 30-50 mg C38 tumor fragments (both […] colon carcinoma cell lines) were subcutaneous implantation into the right flank of female C57Bl/6 (C38 tumor fragments) or Balb/c (CT26 cells) mice, respectively, at day 0 of the experiment.
Protocol C38: At D10, when tumors reached a mean volume of 142±27 mm^3, 160 mice out of 224, were randomized according to their individual tumor volume into 8 groups of 20 mice each. […]
(§2) Monitoring of mice body weights and tumor volume twice a week. […] Tumor width and length were measured using a digital caliper twice a week and estimated tumor volumes were calculated from measured tumor length and width using the formula Estimated tumor volume=width^2×length/2. […]

[2] = tested on: heavily pre-treated patients with different types of blood cancer; conditions: cited from earlier work
[3] = Food effect dog study, plasma pharmacokinetics; assay type: in vivo, dogs (male Beagle); conditions: approx. 60 mg/kg oral tablets; for AUC: male, Beagle, dog, plasma, po, 60 mg/kg, three dogs, read-out: AUC geometric mean
Method: A pharmacokinetic profile for 4SC-202 was determined in an animal study comprising three dogs (male Beagle). To allow for better comparison of the fasted/fed values and eliminate inter-subject variability, each dog first received a first dose of 4SC-202 in the fasted state, and after a wash-out phase of one week, received another dose of 4SC-202 in the fed state. After each respective dose, the plasma pK of 4SC-202 was determined
Before the first dosing, the dogs were fasted overnight and food was returned after the 4 h post-dose blood sampling collections. On each dosing day, the dogs received a single intramuscular injection of freshly prepared Pentagastrin (6 μg/kg and 0.05 mL/kg) 30-33 min prior to oral treatment with approx. 60 mg/kg 4SC-202 (tablet as detailed herein below); for fed animals, these steps were omitted and the dogs received their usual meal approx. 30 min prior to dosing. The number of tablets (4SC-202 tosylate corresponding to 100 mg 4SC-202 free base per tablet) was rounded to the nearest whole tablet based on dose and animal pre-dose body weight. Immediately after dosing the animals received 20 mL of water after oral gavage or were offered 20 mL of water to assist swallowing of the tablets.
Blood samples (1 ml per sample in K2EDTA as anticoagulant) were collected by venipuncture of a peripheral vein and placed on wet ice immediately after collection until centrifugation as 2000*g for 10 min at 2-8° C. to isolate plasma. […]
The concentration of 4SC-202 (free base) in plasma samples was determined by first precipitating the samples with three volume equivalents of acetonitrile containing the internal standard. […]
For the preparation of calibration samples, 4SC-202 tosylate salt was dissolved in dimethylsulfoxide to a concentration of 1.00 mg/mL free base. […] The concentrations were calculated under consideration of purity and salt factor where applicable. All concentrations are expressed as those of the free base. […] The concentration was calculated under consideration of purity and salt factor. […]

CT26 cells = assay: Preclinical murine in vivo tumor model, CT26; set-up: species or system female Balb/c mice; conditions: CT26 model (FIG. 2); anti-PD-L1 10 mg/kg IP; 4SC-202 at 20 mg/kg PO alone or combined
Method: as §1
Protocol CT26: At D7, when tumors reached a mean volume of 73±21 mm^3, 80 mice out of 104, were randomized according to their individual tumor volume into 4 groups of 20 mice each. […]
as §2

SMILES	light stability of solutions [1]	anti-tumor activity compared to mice treated with vehicle (C38 tumor fragments)	tolerability (adverse events) ([2]; 24 heavily pre-treated patients, few and/or manageable adverse events)	disease control, share of patients ([2]; 24 patients)	long-term stabilization, share of patients ([2]; 24 patients)	complete remission, duration ([2]; one complete remission among 24 patients)	partial responder, duration ([2]; one partial responder among 24 patients)	AUC increase of the fed state over the fasted state ([3]; dogs)	AUC ([3]; fasted)	AUC ([3]; fed)	anti-tumor activity compared to mice treated with vehicle (CT26 cells)
Cc1ccc(S(=O)(=O)O)cc1.Cn1cc(-c2ccc(S(=O)(=O)n3ccc(/C=C/C(=O)Nc4ccccc4N)c3)cc2)cn1 [4SC-202 tosylate salt]	light instability										
Cn1cc(-c2ccc(S(=O)(=O)n3ccc(/C=C/C(=O)Nc4ccccc4N)c3)cc2)cn1 [Compound 4SC-202, (E)-N-(2-aminophenyl)-3-(1-((4-(1-methyl-1H-pyrazol-4-yl)phenyl)sulfonyl)-1H-pyrrol-3-yl)acrylamide]		increase of the antitumor activity	well tolerated	83%	50%	28 months	8 months	about 3.5 fold	3980 ng·h/mL	13900 ng·h/mL	increase of the antitumor activity
